Reference: BindingDB's records for patent US11078201 (Nimbus Saturn, 2021)

Each compound was assayed against Mitogen-activated protein kinase kinase kinase kinase 1 (Homo sapiens, UniProt Q92918) (assay: Biochemical Enzyme Assay).
Protocol: HPK1 biochemical enzyme assay: HPK1 enzyme inhibition was measured using a microfluidic mobility shift assay. […] Test compounds were titrated in ten point curves (top final assay concentration […]), and preincubated with enzyme/substrate mix for 30 min prior to initiation of the reaction by addition of ATP (1 mM final concentration) and substrate (1 μM final concentration; Carna Biosciences) diluted in assay buffer supplemented by MgCl2 (final assay concentration of 5 mM). Following 60 min incubation at RT, the reaction was terminated by addition of 60 µl/well termination buffer (Carna Biosciences) and signal determination using a Caliper EZ Reader (Perkin Elmer, UK).

Sequence of Mitogen-activated protein kinase kinase kinase kinase 1 (Q92918 whole entry): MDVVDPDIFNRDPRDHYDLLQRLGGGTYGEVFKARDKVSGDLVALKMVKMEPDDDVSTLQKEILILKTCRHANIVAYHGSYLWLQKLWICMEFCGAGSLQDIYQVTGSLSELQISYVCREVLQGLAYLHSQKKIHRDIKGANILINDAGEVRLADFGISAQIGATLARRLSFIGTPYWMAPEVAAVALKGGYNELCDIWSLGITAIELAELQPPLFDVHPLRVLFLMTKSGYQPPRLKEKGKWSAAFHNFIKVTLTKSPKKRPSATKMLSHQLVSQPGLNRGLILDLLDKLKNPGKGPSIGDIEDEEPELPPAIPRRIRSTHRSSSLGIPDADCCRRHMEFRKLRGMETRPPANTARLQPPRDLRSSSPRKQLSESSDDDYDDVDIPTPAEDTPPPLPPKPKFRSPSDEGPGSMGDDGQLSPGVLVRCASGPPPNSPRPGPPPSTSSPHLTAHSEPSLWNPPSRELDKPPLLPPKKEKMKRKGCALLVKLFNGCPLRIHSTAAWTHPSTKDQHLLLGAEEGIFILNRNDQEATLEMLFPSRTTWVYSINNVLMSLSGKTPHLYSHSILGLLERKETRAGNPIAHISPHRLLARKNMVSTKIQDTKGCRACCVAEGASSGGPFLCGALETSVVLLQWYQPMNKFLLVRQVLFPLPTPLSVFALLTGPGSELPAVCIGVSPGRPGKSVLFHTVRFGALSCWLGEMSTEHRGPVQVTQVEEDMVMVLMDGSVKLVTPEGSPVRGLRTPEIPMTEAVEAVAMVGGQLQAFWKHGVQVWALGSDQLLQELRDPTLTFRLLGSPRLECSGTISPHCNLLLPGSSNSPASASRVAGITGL

IC50, < 100 nM:
CN[C@@H]1CCCN(c2ccc(Nc3ccc(-c4ccnc5c4c(C)cn5C)c4c3C(=O)NC4)nc2)C1 [US11078201, Compound I-100]
Cn1cnc2c(-c3ccc(Nc4ccc(N5CCNCC5)cn4)c4c3CNC4=O)ccnc21 [US11078201, Compound I-122]
CN1CCN(C2=CNC(Nc3cnc(-c4c(-c5ccccc5)[nH]c5ccccc45)c4c3C(=O)NC4)C=C2)CC1 (stereo unspecified) [US11078201, Compound I-141]
O=C1NCc2c(-c3cnn4nccnc34)ccc(Nc3ccc(N4CCC(O)CC4)cn3)c21 [US11078201, Compound I-157]
O=C1NCc2c(-c3cnc4cc(F)ccn34)ccc(Nc3ccc(N4C[C@@H]5CC[C@@H](C5)C4)cn3)c21 [US11078201, Compound I-404]
O=C1NCc2c(-c3cnc4cc(F)ccn34)ccc(Nc3ccc(N4CC5CCC(C5)C4)cn3)c21 [US11078201, Compound I-405]
CN1C=CC2=C(c3ncc(Nc4cccc(N5CC[C@H]6CNC[C@H]65)n4)c4c3CNC4=O)C=CNC21 (stereo partly specified) [US11078201, Compound I-440]
Cn1ccc2c(-c3ncc(NC4C=CC(C5CCOC5)=C(CN5CCCC5)N4)c4c3CNC4=O)ccnc21 (stereo unspecified) [US11078201, Compound I-552]
CO[C@@H]1CN(c2ccc(Nc3ccc(-c4cnn5c4CCCC5)c4c3C(=O)NC4)nc2)[C@@H](CO)CO1 [US11078201, Compound I-571]
CN(C)Cc1nc(Nc2ccc(-c3cnc4cc(F)ccn34)c3c2C(=O)NC3)ccc1C1CC[C@@H](F)[C@H](O)C1 (stereo partly specified) [US11078201, Compound I-700]
CN(C)Cc1nc(Nc2ccc(-c3cnc4cc(F)ccn34)c3c2C(=O)NC3)ccc1C1CC[C@H](F)[C@@H](O)C1 (stereo partly specified) [US11078201, Compound I-701]
